# According to patent US20070129252A1, “2-Halo-6-alkylphenyl-substituted spirocyclic tetramic acid derivatives” (BAYER CROPSCIENCE AKTIENGESELLSCHAFT, priority 2003, published 2007):
# Columns and labels:
# Format in all cases: in vivo
# Avena sativa = experiment: Herbicidal post-emergence action (Example M); conditions: greenhouse, 320 g of a.i./ha, about 3 weeks
# Protocol: (§1) Herbicidal Post-Emergence Action
# (§2) Seeds of monocotyledonous and dicotyledonous weed and crop plants are placed into sandy loam in wood fibre pots, covered with soil and cultivated in a greenhouse under good growth conditions. 2-3 weeks after sowing, the test plants are treated at the one-leaf stage. The test compounds, formulated as wettable powders (WP), are, in various dosages with a water application rate of 600 l/ha (converted), with 0.2% of wetting agent added, sprayed onto the green parts of the plants. After the test plants were kept in the greenhouse under optimum growth conditions for about 3 weeks, the effect of the preparations is rated visually in comparison to untreated controls (herbicidal effect in percent (%): 100% effect=the plants have died, 0% effect=like control plants).
# Lolium [1] = experiment: Herbicidal post-emergence action (Example M); conditions: greenhouse, 320 g of a.i./ha, about 3 weeks
# Protocol: as §1, §2
# Setaria [2] = experiment: Herbicidal post-emergence action (Example M); conditions: greenhouse, 320 g of a.i./ha, about 3 weeks
# Protocol: as §1, §2
# summer wheat = experiment: Herbicidal post-emergence action, vessel trials with cereals in the greenhouse, use of safeners (Example N); conditions: without safener
# Protocol: as §1
# (§3) Seeds of monocotyledonous and dicotyledonous weed and crop plants are placed into sandy loam in wood fibre pots or in plastic pots, covered with soil and cultivated in a greenhouse, during the vegetation period also outdoors outside of the greenhouse, under good growth conditions. 2-3 weeks after sowing, the test plants are treated at the one- to three-leaf stage. The test compounds, formulated as wettable powders (WP) or emulsifiable concentrates (EC) are, in various dosages with a water application rate of 300 l/ha (converted), with wetting agent (0.2 to 0.3%) added, sprayed onto the plants and the surface of the soil. 3-4 weeks after the treatment of the test plants, the effect of the preparations is rated visually in comparison to untreated controls (herbicidal effect in percent (%): 100% effect=the plants have died, 0% effect=like control plants).
# (§4) If it is additionally to be tested as to whether safeners can improve the plant compatibility of test substances in the case of crop plants, the following options are used for applying the safener: • seeds of the crop plants are, before sowing, dressed with the safener substance (the amount of safener is stated in percent, based on the weight of the seed) • before the application of the test substances, the crop plants are sprayed with the safener at a certain application rate per hectare (usually 1 day before the application of the test substances) • the safener is applied together with the test substance as a tank mix (the amount of safener is stated in g/ha or as a ratio, based on the herbicide).
# (§5) By comparing the effect of the test substances on crop plants without or with safener treatment, it is possible to assess the effect of the safener substance.
# (§6) Vessel Trials with Cereals in the Greenhouse
# (§7) Mefenpyr applied 1 day prior to the application of herbicide
# Sinapis [3] = experiment: Herbicidal post-emergence action (Example M); conditions: greenhouse, 320 g of a.i./ha, about 3 weeks
# Protocol: as §1, §2
# Amaranthus = experiment: Herbicidal pre-emergence action (Example L); conditions: greenhouse, 320 g of a.i./ha, 3 weeks
# Source text: (§8) Herbicidal Pre-Emergence Action
# (§9) Seeds of monocotyledonous and dicotyledonous weed and crop plants are placed into sandy loam in wood fibre pots and covered with soil. The test compounds, formulated in the form of wettable powders (WP), are then, in various dosages as aqueous suspension with a water application rate of 600 l/ha (converted), with 0.2% of wetting agent added, applied to the surface of the covering soil.
# (§10) After the treatment, the pots are placed in a greenhouse and kept under good growth conditions for the test plants. The visual assessment of the emergence damage on the test plants is carried out after a trial period of 3 weeks by comparison with untreated controls (herbicidal effect in percent (%): 100% effect=the plants have died, 0% effect=like control plants).
# Lolium [4] = experiment: Herbicidal pre-emergence action (Example L); conditions: greenhouse, 320 g of a.i./ha, 3 weeks
# Source text: as §8, §9, §10
# Setaria [5] = experiment: Herbicidal pre-emergence action (Example L); conditions: greenhouse, 320 g of a.i./ha, 3 weeks
# Source text: as §8, §9, §10
# Tetranychus urticae [6] = experiment: Tetranychus test (OP-resistant/spray treatment); conditions: 100 g/ha; spray treatment; bean leaf discs
# Protocol: Tetranychus Test (OP-Resistant/Spray Treatment)
# To produce a suitable preparation of active compound, 1 part by weight of active compound is mixed with the stated amounts of solvents and emulsifier, and the concentrate is diluted with emulsifier-containing water to the desired concentration.
# Discs of bean leaves (Phaseolus vulgaris) which are infested by all stages of the greenhouse red spider mite (Tetranychus urticae) are sprayed with a preparation of active compound of the desired concentration.
# (§11) After the desired period of time, the activity in % is determined. 100% means that all spider mites have been killed; 0% means that none of the spider mites have been killed.
# Myzus persicae = experiment: Myzus test (spray treatment); conditions: 100 g/ha, Chinese cabbage discs
# Protocol: Myzus Test (Spray Treatment)
# (§12) To produce a suitable preparation of active compound, 1 part by weight of active compound is mixed with the stated amounts of solvent and emulsifier, and the concentrate is diluted with emulsifier-containing water to the desired concentration.
# Discs of Chinese cabbage (Brassica pekinensis), which are infested by all stages of the green peach aphid (Myzus persicae), are sprayed with a preparation of active compound of the desired concentration.
# After the desired period of time, the effect in % is determined. 100% means that all aphids have been killed; 0% means that none of the aphids have been killed.
# Sinapis [7] = experiment: Herbicidal pre-emergence action (Example L); conditions: greenhouse, 320 g of a.i./ha, 3 weeks
# Source text: as §8, §9, §10
# Stellaria = experiment: Herbicidal pre-emergence action (Example L); conditions: greenhouse, 320 g of a.i./ha, 3 weeks
# Source text: as §8, §9, §10
# summer barley = experiment: Herbicidal post-emergence action, vessel trials with cereals in the greenhouse, use of safeners (Example N); conditions: without safener
# Protocol: as §1, §3, §4, §5, §6, §7
# Tetranychus urticae [8] = experiment: Tetranychus test (OP-resistant/dip treatment); conditions: 4 ppm; dip treatment; bean plants (Table B)
# Protocol: Tetranychus Test (OP-Resistant/Dip Treatment)
# as §12
# Bean plants (Phaseolus vulgaris), which are heavily infested by all stages of the greenhouse red spider mite (Tetranychus urticae), are dipped into a preparation of active compound of the desired concentration.
# as §11
# Phaedon cochleariae = experiment: Phaedon test (spray treatment); conditions: 100 g/ha, Chinese cabbage discs
# Protocol: Phaedon Test (Spray Treatment) [table] To produce a suitable preparation of active compound, 1 part by weight of active compound is mixed with the stated amounts of solvents and emulsifier, and the concentrate is diluted with emulsifier-containing water to the desired concentration. Discs of Chinese cabbage (Brassica pekinensis) are sprayed with a preparation of active compound of the desired concentration and, after they have dried, populated with larvae of the mustard beetle (Phaedon cochleariae).
SMILES,"herbicidal effect in percent, Avena sativa (Avena sativa) [%]","herbicidal effect in percent, Lolium (Lolium [1]) [%]","herbicidal effect in percent, Setaria (Setaria [2]) [%]",summer wheat observed (%) (summer wheat; 12.5 g of a.i./ha),summer wheat observed (%) (summer wheat; 25 g of a.i./ha),summer wheat observed (%) (summer wheat; 50 g of a.i./ha),"herbicidal effect in percent, Sinapis (Sinapis [3]) [%]","herbicidal effect in percent, Amaranthus (Amaranthus) [%]","herbicidal effect in percent, Lolium (Lolium [4]) [%]","herbicidal effect in percent, Setaria (Setaria [5]) [%]",Kill rate in % after 5d (Tetranychus urticae [6]) [%],Kill rate in % after 5d (Myzus persicae) [%],"herbicidal effect in percent, Sinapis (Sinapis [7]) [%]","herbicidal effect in percent, Stellaria (Stellaria) [%]",summer barley observed (%) (summer barley; 12.5 g of a.i./ha),summer barley observed (%) (summer barley; 25 g of a.i./ha),summer barley observed (%) (summer barley; 50 g of a.i./ha),Kill rate in % after 7d (Tetranychus urticae [8]) [%],Kill rate in % after 7d (Phaedon cochleariae) [%],summer barley observed (%) (summer barley; 100 g of a.i./ha)
CCOC(=O)OC1=C(c2c(Br)cc(C)cc2CC)C(=O)NC12CCCCC2 [I-c-2],90,90,80,–,–,–,–,–,–,–,–,–,–,–,–,–,–,–,–,–
CCc1cc(C)cc(Br)c1C1=C(OC(=O)COC)C2(CCCCC2)NC1=O [Example I-b-2],90,100,100,20,70,98,–,–,–,–,–,–,–,–,–,–,–,–,–,–
"CCOC(=O)OC1=C(c2c(Br)cc(C)cc2CC)C(=O)NC12CCC(OC)CC2 (single isomer, unassigned) [I-c-3]",100,100,100,–,–,–,70,100,100,100,80,80,–,–,–,–,–,–,–,–
"CCOC(=O)OC1=C(c2c(Cl)cc(C)cc2CC)C(=O)NC12CCC(OC)CC2 (single isomer, unassigned) [Example I-c-4]",100,100,100,60,–,–,80,–,80,90,–,–,70,80,20,70,–,–,–,–
CCc1cc(C)cc(Br)c1C1=C(OC(=O)C(C)C)C2(CCCCC2)NC1=O [Example I-b-3],100,90,100,10,20,75,–,–,–,–,–,–,–,–,–,–,–,–,–,–
"CCc1cc(C)cc(Br)c1C1=C(OC(=O)COC)C2(CCC(OC)CC2)NC1=O (single isomer, unassigned) [Example I-b-5]",100,100,100,–,–,–,70,–,100,90,70,80,80,–,35,65,98,–,–,–
CCc1cc(C)cc(Br)c1C1=C(O)C2(CCCCC2)NC1=O [I-a-2],80,90,100,–,–,–,–,–,–,–,–,–,–,–,–,–,–,–,–,–
"CCc1cc(C)cc(Br)c1C1=C(O)C2(CCC(OC)CC2)NC1=O (single isomer, unassigned) [Example I-a-3]",100,100,100,–,60,–,80,80,80,100,90,100,–,–,–,20,90,50,100,95
CCc1cc(C)cc(Br)c1C1=C(OC(=O)C(C)(C)C)C2(CCCCC2)NC1=O [I-b-4],80,90,90,–,–,–,–,–,–,–,–,–,–,–,–,–,–,–,–,–
